# Measurements from PubChem BioAssay (NCI).
#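 Grown in 96-well plates, cells were treated for 48 hours with each compound at five concentrations. Insufficient inhibition: endpoint recorded as highest concentration tested. GI50 marks 50% less growth. TGI marks complete inhibition of growth.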
# Tests used:
# Test in all cases: DTP human tumour cell line panel, 48 h
# HS 578T breast = test system: HS 578T breast
# CCRF-CEM leukemia = test system: CCRF-CEM leukemia
# CAKI-1 renal = test system: CAKI-1 renal
# NCI/ADR-RES ovarian = test system: NCI/ADR-RES ovarian
# SNB-75 CNS = test system: SNB-75 CNS
# HCC-2998 colon = test system: HCC-2998 colon
# MCF7 breast = test system: MCF7 breast
# HCT-15 colon = test system: HCT-15 colon
# SF-539 CNS = test system: SF-539 CNS
# SF-295 CNS = test system: SF-295 CNS
# MDA-MB-231 breast = test system: MDA-MB-231 breast
# COLO 205 colon = test system: COLO 205 colon
# SK-MEL-2 melanoma = test system: SK-MEL-2 melanoma
# A498 renal = test system: A498 renal
# SF-268 CNS = test system: SF-268 CNS
# DU-145 prostate = test system: DU-145 prostate
# RPMI-8226 leukemia = test system: RPMI-8226 leukemia
# SN12C renal = test system: SN12C renal
# OVCAR-5 ovarian = test system: OVCAR-5 ovarian
# RXF 393 renal = test system: RXF 393 renal
# SK-MEL-28 melanoma = test system: SK-MEL-28 melanoma
# KM12 colon = test system: KM12 colon
# T-47D breast = test system: T-47D breast
# SK-OV-3 ovarian = test system: SK-OV-3 ovarian
# OVCAR-3 ovarian = test system: OVCAR-3 ovarian
# BT-549 breast = test system: BT-549 breast
# SK-MEL-5 melanoma = test system: SK-MEL-5 melanoma
# MDA-MB-435 = test system: MDA-MB-435
# HL-60(TB) leukemia = test system: HL-60(TB) leukemia
# U251 CNS = test system: U251 CNS
# NCI-H23 lung = test system: NCI-H23 lung
# HOP-62 NSCLC = test system: HOP-62 NSCLC
# LOX IMVI melanoma = test system: LOX IMVI melanoma
# ACHN renal = test system: ACHN renal
# EKVX NSCLC = test system: EKVX NSCLC
# UACC-257 melanoma = test system: UACC-257 melanoma
# MOLT-4 leukemia = test system: MOLT-4 leukemia
# IGROV1 ovarian = test system: IGROV1 ovarian
# 786-0 renal = test system: 786-0 renal
# HCT-116 colon = test system: HCT-116 colon
# SW-620 colon = test system: SW-620 colon
# PC-3 prostate = test system: PC-3 prostate
# UACC-62 melanoma = test system: UACC-62 melanoma
# K-562 leukemia = test system: K-562 leukemia
# UO-31 renal = test system: UO-31 renal
# HOP-92 NSCLC = test system: HOP-92 NSCLC
# NCI-H226 lung = test system: NCI-H226 lung
structure (smiles),measurement,setting,value
COc1ccc(C2=NN(C(C)=O)C(c3cn(-c4ccccc4)nc3-c3ccc(Cl)cc3)C2)cc1 (configuration not stated),GI50,HS 578T breast,4.88 µM
same,TGI,HS 578T breast,> 100 µM
same,GI50,CCRF-CEM leukemia,> 100 µM
same,TGI,CCRF-CEM leukemia,> 100 µM
same,GI50,CAKI-1 renal,> 100 µM
same,TGI,CAKI-1 renal,> 100 µM
same,GI50,NCI/ADR-RES ovarian,> 100 µM
same,TGI,NCI/ADR-RES ovarian,> 100 µM
same,GI50,SNB-75 CNS,9.08 µM
same,TGI,SNB-75 CNS,> 100 µM
same,GI50,HCC-2998 colon,> 100 µM
same,TGI,HCC-2998 colon,> 100 µM
same,GI50,MCF7 breast,> 100 µM
same,TGI,MCF7 breast,> 100 µM
same,TGI,HCT-15 colon,> 100 µM
same,GI50,SF-539 CNS,25.4 µM
same,TGI,SF-539 CNS,> 100 µM
same,GI50,SF-295 CNS,13.2 µM
same,TGI,SF-295 CNS,> 100 µM
same,GI50,MDA-MB-231 breast,> 100 µM
same,TGI,MDA-MB-231 breast,> 100 µM
same,GI50,COLO 205 colon,> 100 µM
same,TGI,COLO 205 colon,> 100 µM
same,GI50,SK-MEL-2 melanoma,> 100 µM
same,TGI,SK-MEL-2 melanoma,> 100 µM
same,GI50,A498 renal,99.5 µM
same,TGI,A498 renal,> 100 µM
same,GI50,SF-268 CNS,6.2 µM
same,TGI,SF-268 CNS,> 100 µM
same,GI50,DU-145 prostate,> 100 µM
same,TGI,DU-145 prostate,> 100 µM
same,GI50,RPMI-8226 leukemia,> 100 µM
same,TGI,RPMI-8226 leukemia,> 100 µM
same,GI50,SN12C renal,> 100 µM
same,TGI,SN12C renal,> 100 µM
same,GI50,OVCAR-5 ovarian,> 100 µM
same,TGI,OVCAR-5 ovarian,> 100 µM
same,GI50,RXF 393 renal,10.5 µM
same,TGI,RXF 393 renal,> 100 µM
same,GI50,SK-MEL-28 melanoma,> 100 µM
same,TGI,SK-MEL-28 melanoma,> 100 µM
same,GI50,KM12 colon,> 100 µM
same,TGI,KM12 colon,> 100 µM
same,GI50,T-47D breast,> 100 µM
same,TGI,T-47D breast,> 100 µM
same,GI50,SK-OV-3 ovarian,4.64 µM
same,TGI,SK-OV-3 ovarian,> 100 µM
same,GI50,OVCAR-3 ovarian,> 100 µM
same,TGI,OVCAR-3 ovarian,> 100 µM
same,GI50,BT-549 breast,> 100 µM
same,TGI,BT-549 breast,> 100 µM
same,GI50,SK-MEL-5 melanoma,> 100 µM
same,TGI,SK-MEL-5 melanoma,> 100 µM
same,GI50,MDA-MB-435,> 100 µM
same,TGI,MDA-MB-435,> 100 µM
same,GI50,HL-60(TB) leukemia,> 100 µM
same,TGI,HL-60(TB) leukemia,> 100 µM
same,GI50,U251 CNS,7.44 µM
same,TGI,U251 CNS,> 100 µM
same,GI50,NCI-H23 lung,> 100 µM
same,TGI,NCI-H23 lung,> 100 µM
same,GI50,HOP-62 NSCLC,> 100 µM
same,TGI,HOP-62 NSCLC,> 100 µM
same,GI50,LOX IMVI melanoma,> 100 µM
same,TGI,LOX IMVI melanoma,> 100 µM
same,GI50,ACHN renal,> 100 µM
same,TGI,ACHN renal,> 100 µM
same,GI50,EKVX NSCLC,> 100 µM
same,TGI,EKVX NSCLC,> 100 µM
same,GI50,UACC-257 melanoma,> 100 µM
same,TGI,UACC-257 melanoma,> 100 µM
same,GI50,MOLT-4 leukemia,> 100 µM
same,TGI,MOLT-4 leukemia,> 100 µM
same,GI50,IGROV1 ovarian,> 100 µM
same,TGI,IGROV1 ovarian,> 100 µM
same,GI50,786-0 renal,30.7 µM
same,TGI,786-0 renal,> 100 µM
same,GI50,HCT-116 colon,> 100 µM
same,TGI,HCT-116 colon,> 100 µM
same,TGI,SW-620 colon,> 100 µM
same,GI50,PC-3 prostate,> 100 µM
same,TGI,PC-3 prostate,> 100 µM
same,GI50,UACC-62 melanoma,> 100 µM
same,TGI,UACC-62 melanoma,> 100 µM
same,GI50,K-562 leukemia,> 100 µM
same,TGI,K-562 leukemia,> 100 µM
same,GI50,UO-31 renal,> 100 µM
same,TGI,UO-31 renal,> 100 µM
same,GI50,HOP-92 NSCLC,2.4 µM
same,TGI,HOP-92 NSCLC,> 100 µM
same,GI50,NCI-H226 lung,> 100 µM
same,TGI,NCI-H226 lung,> 100 µM
